Assay [1] concerns peptide-pulsed C1R-A03. Briefly: In vitro CTL induction, IFN-gamma ELISPOT assay (HLA-A*0301). It counts as cell-based, human. The note with it: CTLs induced with peptide-pulsed DCs from HLA-A*0301-positive volunteers; day 21; vs peptide-pulsed C1R-A03, compared with unpulsed control. The protocol:
C1R (C1R-A03) that stably expresses HLA-A*0301 was used as a stimulator cell. A cDNA encoding the open-reading frame of HLA-A*0301 was amplified by PCR and cloned into an expression vector. C1R cells were transfected with the expression vector, and then selected using G418 (Invitrogen) for two weeks. The G418-selected cells were seeded into wells containing G418-added culture medium in a 96-well plate, and further cultured for 30 days. The exogenous HLA-A*0301 expression in C1R cells was verified by flow cytometric analysis.
Monocyte-derived dendritic cells (DCs) were used as the antigen-presenting cell to induce a cytotoxic T lymphocyte (CTL) response against peptides presented on human leukocyte antigens (HLAs). As described in the other sections, DCs were generated in vitro (Nakahara S et al., Cancer Res 2003, 63(14): 4112-8). Specifically, peripheral-blood mononuclear cells isolated from healthy volunteers (HLA-A*0301-positive) with the Ficoll-Paque plus solution (Pharmacia) were separated by attaching to plastic tissue culture dishes (Becton Dickinson) and concentrated as a monocyte fraction. The monocyte-concentrated population was cultured in the presence of 1000 IU/ml granulocyte macrophage colony-stimulating factor (R&D System) and 1000 IU/ml interleukin(IL)-4 (R&D System) in an AIM-V medium (Invitrogen) containing 2% heat-inactivated autologous serum (AS). After seven days of culturing, the cytokine-induced DCs were pulsed with 20 micro-g/ml each of the synthesized peptides in an AIM-V medium at 37 degrees C. for three hours in the presence of 3 micro-g/ml beta 2-microglobulin. The generated cells appeared to express on their cell surface DC-associated molecules such as CD80, CD83, CD86 and HLA class II (data not shown). Next, these peptide-pulsed DCs were inactivated by X-ray irradiation (20 Gy), and mixed in a 1:20 ratio with autologous CD8^+ T cells obtained by positive selection using the CD8 Positive Isolation Kit (Dynal). These culture products were seeded in a 48-well plate (Corning). Each well was made to contain 1.5×10^4 peptide-pulsed DCs, 3×10^5 CD8^+ T cells and 10 ng/ml IL-7 (R&D System) in 0.5 ml of the AIM-V/2% AS medium. Three days later, these culture products were added with a final concentration of 20 IU/ml IL-2 (CHIRON). On day 7 and day 14, T cells were further stimulated with peptide-pulsed autologous DCs. The DCs were prepared every time by the same method as above. […]

The subject of assay [2] is peptide-pulsed C1R-A33. Briefly: In vitro CTL induction, IFN-gamma ELISPOT assay (HLA-A*3303). It counts as cell-based, human. The conditions noted are these: CTLs induced with peptide-pulsed DCs from HLA-A*3303-positive volunteers; day 21; vs peptide-pulsed C1R-A33, compared with unpulsed control. As to the method:
C1R (C1R-A33) that stably expresses HLA-A*3303 was used as a stimulator cell. A cDNA encoding the open-reading frame of HLA-A*3303 was amplified by PCR and cloned into an expression vector. C1R cells were transfected with the expression vector, and then selected using G418 (Invitrogen) for two weeks. The G418-selected cells were seeded into wells containing G418-added culture medium in a 96-well plate, and further cultured for 30 days. The exogenous HLA-A*3303 expression in C1R cells was verified by flow cytometric analysis.
Monocyte-derived dendritic cells (DCs) were used as the antigen-presenting cell to induce a cytotoxic T lymphocyte (CTL) response against peptides presented on human leukocyte antigens (HLAs). As described in the other sections, DCs were generated in vitro (Nakahara S et al., Cancer Res 2003, 63(14): 4112-8). Specifically, peripheral-blood mononuclear cells isolated from healthy volunteers (HLA-A*3303-positive) with the Ficoll-Paque plus solution (Pharmacia) were separated by attaching to plastic tissue culture dishes (Becton Dickinson) and concentrated as a monocyte fraction. The monocyte-concentrated population was cultured in the presence of 1000 IU/ml granulocyte macrophage colony-stimulating factor (R&D System) and 1000 IU/ml interleukin(IL)-4 (R&D System) in an AIM-V medium (Invitrogen) containing 2% heat-inactivated autologous serum (AS). After seven days of culturing, the cytokine-induced DCs were pulsed with 20 micro-g/ml each of the synthesized peptides in an AIM-V medium at 37 degrees C. for three hours in the presence of 3 micro-g/ml beta 2-microglobulin. The generated cells appeared to express on their cell surface DC-associated molecules such as CD80, CD83, CD86 and HLA class II (data not shown). Next, these peptide-pulsed DCs were inactivated by X-ray irradiation (20 Gy), and mixed in a 1:20 ratio with autologous CD8^+ T cells obtained by positive selection using the CD8 Positive Isolation Kit (Dynal). These culture products were seeded in a 48-well plate (Corning). Each well was made to contain 1.5×10^4 peptide-pulsed DCs, 3×10^5 CD8^+ T cells and 10 ng/ml IL-7 (R&D System) in 0.5 ml of the AIM-V/2% AS medium. Three days later, these culture products were added with a final concentration of 20 IU/ml IL-2 (CHIRON). On day 7 and day 14, T cells were further stimulated with peptide-pulsed autologous DCs. The DCs were prepared every time by the same method as above. On day 21, after the third peptide stimulation, CTLs were examined against the peptide-pulsed C1R-A33 cell by a human interferon (IFN)-gamma enzyme-linked immunospot (ELISPOT) assay (Tanaka H et al., Br J Cancer 2001, 84(1): 94-9; Umano Y et. al., Br J Cancer 2001, 84(8): 1052-7; Uchida N et al., Clin Cancer Res 2004, 10(24): 8577-86; Suda T et al., Cancer Sci 2006, 97(5): 411-9; Watanabe T et al., Cancer Sci 2005, 96(8): 498-506).
Specifically, peptide-pulsed C1R-A33 (1×10^4 cells/well) was prepared as the stimulator cell. The induced CTLs, i.e., CTL lines and CTL clones, were used as the responder cell. The IFN-gamma ELISPOT assay and IFN-gamma ELISA were performed according to the manufacturer's manual.

With “TQFVGAIIGK (a peptide derived from KOC1) [SEQ ID NO: 30]”, the “peptide-specific CTL activity (IFN-gamma production), ELISPOT” value in assay [1] is given as “potent IFN-gamma production”. In the case of “ILAHNNFVGR (a peptide derived from KOC1) [SEQ ID NO: 52]”, the “peptide-specific CTL activity (IFN-gamma production), ELISPOT” value in assay [2] and in assay [1] was “potent IFN-gamma production” throughout.

(Values after patent US10576102B2, “KOC1-derived peptide and vaccine including same” (ONCOTHERAPY SCIENCE, INC., priority 2014, dated 2020).)
